Experimental findings from patent publication US20240218022A1, “ANTI-VISTA MACROCYCLIC PEPTIDES AND COMPOSITIONS” (BRISTOL-MYERS SQUIBB COMPANY, priority 2022, published 2024) are described below.

By IC50 is commonly meant the midpoint of a concentration-inhibition curve.

For this assay, the target named is T1, mouse VISTA (mVISTA) (Mus musculus, UniProt Q9D659).
T1 construct: expressed in transfected cells; host or cells: Human embryonic kidney 293T cells
T1 sequence (Q9D659 33-308): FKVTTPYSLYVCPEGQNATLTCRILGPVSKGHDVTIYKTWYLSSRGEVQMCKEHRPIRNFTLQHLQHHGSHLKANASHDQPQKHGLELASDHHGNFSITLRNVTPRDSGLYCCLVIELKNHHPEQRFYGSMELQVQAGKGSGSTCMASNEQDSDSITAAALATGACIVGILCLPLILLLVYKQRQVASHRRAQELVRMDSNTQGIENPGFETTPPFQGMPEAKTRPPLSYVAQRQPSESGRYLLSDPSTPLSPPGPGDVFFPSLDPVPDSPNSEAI
Kind of assay: Cell-Based Binding High-Content Assay For mVISTA (HC CBA mVISTA). The gist of the method: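 Competition of compound with a biotinylated peptide (final 2 nM, 30 min at RT) for binding to mVISTA on 293T cells, run under no-wash or wash (1 h compound preincubation then removal) formats. Readout by Alexa 647–streptavidin imaging on a high-content platform; four-parameter logistic fit gave IC50.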

Where [1] appears, read: cell-based binding high-content assay, mVISTA, the 16th table, read-out: HC CBA mVISTA IC50.
Setting [2] is: cell-based binding high-content assay, mVISTA, the 15th table, read-out: HC CBA mVISTA IC50.

Like-named read-outs stand apart in the source and are kept apart here. Starred links: 1 amine or outer side, 2 acyl side, 3 side chain; linkers in the order of their positions; H or OH if unused. Positions of bridges follow the written chain, without caps; N, C: chain ends. Non-standard residues stand in square brackets, D forms with d. Residues, ends and D or L forms follow the SMILES beside them. ξ: configuration not given here. Phe(3-Me) = Cc1cccc(C[C@H](N)C(=O)O)c1; γGlu = O=C(O)[C@H](CCC(=O)[*:2])N[*:1]; 2Nal = N[C@@H](Cc1ccc2ccccc2c1)C(=O)O; βAsp = O=C(O)[C@H](CC(=O)[*:2])N[*:1]; Cit = NC(=O)NCCC[C@H](N)C(=O)O; Ahp(2) = CCCCC[C@H](N)C(=O)O; NMeNle = CCCC[C@H](NC)C(=O)O; Tle = CC(C)(C)[C@H](N)C(=O)O; NMeV = CN[C@H](C(=O)O)C(C)C; NMeS = CN[C@@H](CO)C(=O)O; NHexGly = CCCCCCNCC(=O)O; Nle = CCCC[C@H](N)C(=O)O; Orn = NCCC[C@H](N)C(=O)O; Aun = NCCCCCCCCCCC(=O)O; ξD = NC(CC(=O)O)C(=O)O; AEEA = NCCOCCOCC(=O)O; ξP = O=C(O)C1CCCN1

As for `CCCCCCN1CC(=O)N[C@@H](Cc2ccc(O)cc2)C(=O)N[C@@H](CCCC)C(=O)N[C@@H](CC(N)=O)C(=O)N[C@@H](CCCNC(=N)N)C(=O)N(C)[C@@H](CCCC)C(=O)N[C@@H](CCCCC)C(=O)N2CCCC2C(=O)N[C@@H](C(C)C)C(=O)N[C@@H](CC(=O)O)C(=O)N[C@H](C(=O)NCC(=O)N[C@@H](CCC(=O)NCCOCCOCC(=O)N[C@@H](CC(=O)O)C(=O)NCCOCCOCC(=O)NCCCCCCCCCCC(=O)O)C(=O)O)CSCC(=O)N[C@@H](Cc2ccc3ccccc3c2)C(=O)N[C@@H](Cc2c[nH]c3ccccc23)C(=O)N[C@@H](CC(=O)O)C1=O` (stereo partly shown) [compound 2125] ({CH2CO}-[2Nal]WD[NHexGly]Y[Nle]NR[NMeNle][Ahp(2)][ξP]VDCG[γGlu][AEEA]D[AEEA][Aun]-OH; thioether N-14), the 50% inhibitory concentration (IC50) (read-out: HC CBA mVISTA IC50) worked out at 19.6 nM.

On to `CCCCCCN1CC(=O)N[C@@H](Cc2ccc(O)cc2)C(=O)N[C@@H](CCCC)C(=O)N[C@@H](CC(N)=O)C(=O)N[C@@H](CCCNC(=N)N)C(=O)N(C)[C@@H](CCCC)C(=O)N[C@@H](CCCCC)C(=O)N2CCC[C@H]2C(=O)N[C@@H](C(C)(C)C)C(=O)N[C@@H](CC(=O)O)C(=O)N[C@H](C(=O)N[C@@H](CC(N)=O)C(=O)NCCOCCOCC(=O)NCCCCCCCCCCC(=O)O)CSCC(=O)N[C@@H](Cc2ccccc2)C(=O)N[C@@H](Cc2c[nH]c3ccccc23)C(=O)N[C@@H](CC(=O)O)C1=O` [Example 2338] ({CH2CO}-FWD[NHexGly]Y[Nle]NR[NMeNle][Ahp(2)]P[Tle]DCN[AEEA][Aun]-OH; thioether N-14), for which, for the setting “cell-based binding high-content assay, read-out: HC CBA mVISTA IC50”, the 50% inhibitory concentration (IC50) worked out at 52 nM.

For `CCCCCCN1CC(=O)N[C@@H](Cc2ccc(O)cc2)C(=O)N[C@@H](CCCCC)C(=O)NCC(=O)N[C@@H](CCCNC(N)=O)C(=O)N[C@@H](CC(C)C)C(=O)N[C@@H](CCCCC)C(=O)N2CCC[C@H]2C(=O)N[C@@H](C(C)C)C(=O)N[C@@H](CO)C(=O)N[C@H](C(=O)NCC(N)=O)CSCC(=O)N[C@@H](Cc2ccc3ccccc3c2)C(=O)N[C@@H](Cc2ccc(O)cc2)C(=O)N[C@@H](CC(=O)O)C1=O` [Ex 1302] ({CH2CO}-[2Nal]YD[NHexGly]Y[Ahp(2)]G[Cit]L[Ahp(2)]PVSCG-NH2; thioether N-14), the IC50 under setting [1] was 7.5 nM. As for `CCCCCCN1CC(=O)N[C@@H](Cc2ccc(O)cc2)C(=O)N[C@@H](CC(C)C)C(=O)N[C@@H](CC(N)=O)C(=O)N[C@@H](CCCNC(=N)N)C(=O)N(C)[C@@H](C(C)C)C(=O)N[C@@H](CCCCC)C(=O)N2CCC[C@H]2C(=O)N[C@@H](C(C)(C)C)C(=O)N[C@@H](CO)C(=O)N[C@H](C(=O)N[C@@H](CC(=O)NCCOCCOCC(=O)N[C@@H](CC(=O)O)C(=O)NCCOCCOCC(=O)NCCCCCCCCCCC(=O)O)C(=O)O)CSCC(=O)N[C@@H](Cc2ccccc2)C(=O)N[C@@H](Cc2c[nH]c3ccccc23)C(=O)N[C@@H](CC(=O)O)C1=O` [compound 2039] ({CH2CO}-FWD[NHexGly]YLNR[NMeV][Ahp(2)]P[Tle]SC[βAsp][AEEA]D[AEEA][Aun]-OH; thioether N-14), the IC50 (cell-based binding high-content assay, mVISTA, read-out: HC CBA miPr ISTA IC50) was determined as 23.8 nM.

Take `CCCCCCN1CC(=O)N[C@@H](Cc2ccc(O)cc2)C(=O)N[C@@H](CCCC)C(=O)N[C@@H](CC(N)=O)C(=O)N[C@@H](CCCNC(=N)N)C(=O)N(C)[C@@H](CO)C(=O)N[C@@H](CCCCC)C(=O)N2CCC[C@H]2C(=O)N[C@@H](C(C)C)C(=O)N[C@@H](CC(=O)O)C(=O)N[C@H](C(=O)NCC(=O)O)CSCC(=O)N[C@@H](Cc2ccc3ccccc3c2)C(=O)N[C@@H](Cc2c[nH]c3ccccc23)C(=O)N[C@@H](CC(=O)O)C1=O` [compound 1259] ({CH2CO}-[2Nal]WD[NHexGly]Y[Nle]NR[NMeS][Ahp(2)]PVDCG-OH; thioether N-14): the IC50 under setting [2] turned out to be 8 nM.

For the compound `CCCCCCN1CC(=O)N[C@@H](Cc2ccc(O)cc2)C(=O)N[C@@H](CCCC)C(=O)N[C@@H](CC(N)=O)C(=O)N[C@@H](CCCNC(=N)N)C(=O)N(C)[C@@H](CCCC)C(=O)N[C@@H](CCCCC)C(=O)N2CCC[C@H]2C(=O)N[C@@H](C(C)C)C(=O)N[C@@H](CC(=O)O)C(=O)N[C@H](C(=O)NCC(=O)O)CSCC(=O)N[C@@H](Cc2cccc(C)c2)C(=O)N[C@@H](Cc2c[nH]c3ccccc23)C(=O)N[C@@H](CC(=O)O)C1=O` [compound 1442] ({CH2CO}-[Phe(3-Me)]WD[NHexGly]Y[Nle]NR[NMeNle][Ahp(2)]PVDCG-OH; thioether N-14), where the note is “the 19th table, scaffold drawing 22, read-out: HC CBA mVISTA IC50”, the half-maximal inhibitory concentration (IC50) stood at 27.7 nM.

For `CCCCCCN1CC(=O)N[C@@H](Cc2ccc(O)cc2)C(=O)N[C@@H](CCCC)C(=O)N[C@@H](CC(=O)O)C(=O)N[C@@H](CCCN)C(=O)N(C)[C@@H](CCCC)C(=O)N[C@@H](CCCCC)C(=O)N2CCC[C@H]2C(=O)N[C@@H](C(C)C)C(=O)N[C@@H](CC(=O)O)C(=O)N[C@H](C(=O)NC(CC(=O)O)C(N)=O)CSCC(=O)N[C@@H](Cc2ccccc2)C(=O)N[C@@H](Cc2cccc(C)c2)C(=O)N[C@@H](CC(=O)O)C1=O` (stereo partly shown) [compound 1343] ({CH2CO}-F[Phe(3-Me)]D[NHexGly]Y[Nle]D[Orn][NMeNle][Ahp(2)]PVDC[ξD]-NH2; thioether N-14), the half-inhibitory concentration (IC50) (read-out: HC CBA mVISTA IC50) was 17.8 nM. With `CCCCCCN1CC(=O)N[C@@H](Cc2ccc(O)cc2)C(=O)N[C@@H](CCCC)C(=O)N[C@@H](CC(N)=O)C(=O)N[C@@H](CCCNC(=N)N)C(=O)N[C@@H](CC(C)C)C(=O)N[C@@H](CCCCC)C(=O)N2CCC[C@H]2C(=O)N[C@@H](C(C)C)C(=O)N[C@@H](CC(=O)O)C(=O)N[C@H](C(=O)NCC(=O)O)CSCC(=O)N[C@@H](Cc2ccccc2)C(=O)N[C@@H](Cc2cccc(C)c2)C(=O)N[C@@H](CC(=O)O)C1=O` [compound 1329] ({CH2CO}-F[Phe(3-Me)]D[NHexGly]Y[Nle]NRL[Ahp(2)]PVDCG-OH; thioether N-14), under “read-out: HC CBA mVISTA IC50”, the IC50 was 4.5 nM. In the case of `CCCCCCN1CC(=O)N[C@@H](Cc2ccc(O)cc2)C(=O)N[C@@H](CCCC)C(=O)N[C@@H](CC(N)=O)C(=O)N[C@@H](CCCNC(=N)N)C(=O)N(C)[C@@H](CCCC)C(=O)N[C@@H](CCCCC)C(=O)N2CCC[C@H]2C(=O)N[C@@H](C(C)(C)C)C(=O)N[C@@H](CO)C(=O)N[C@H](C(=O)NCCOCCOCC(=O)N[C@@H](CCC(=O)NCCOCCOCC(=O)NCCCCCCCCCCC(=O)O)C(=O)O)CSCC(=O)N[C@@H](Cc2ccccc2)C(=O)N[C@@H](Cc2cccc(C)c2)C(=O)N[C@@H](CC(=O)O)C1=O` [compound 2225] ({CH2CO}-F[Phe(3-Me)]D[NHexGly]Y[Nle]NR[NMeNle][Ahp(2)]P[Tle]SC[AEEA][γGlu][AEEA][Aun]-OH; thioether N-14), under “read-out: HC CBA mVISTA IC50”, the half-maximal inhibitory concentration (IC50) amounted to 30.8 nM. For `CCCCCCN1CC(=O)N[C@@H](Cc2ccc(O)cc2)C(=O)N[C@@H](CC(C)C)C(=O)NCC(=O)N[C@@H](CCCNC(=N)N)C(=O)N[C@@H](CCCCN)C(=O)N[C@@H](CCCCC)C(=O)N2CCC[C@H]2C(=O)N[C@@H](C(C)C)C(=O)N[C@@H](CO)C(=O)N[C@H](C(=O)NCC(=O)O)CSCC(=O)N[C@@H](Cc2ccccc2)C(=O)N[C@@H](Cc2ccc(O)cc2)C(=O)N[C@@H](CC(=O)O)C1=O` [Example 1091] ({CH2CO}-FYD[NHexGly]YLGRK[Ahp(2)]PVSCG-OH; thioether N-14), the concentration for half-maximal inhibition (IC50) (293T cells expressing mouse VISTA, competition with biotinylated peptide (2 nM), read-out: HC CBA mVISTA IC50) was 5.3 nM. `CCCCCCN1CC(=O)N[C@@H](Cc2ccc(O)cc2)C(=O)N[C@@H](CC(C)C)C(=O)NCC(=O)N[C@@H](CCCNC(=N)N)C(=O)N[C@@H](Cc2ccc(O)cc2)C(=O)N[C@@H](CCCCC)C(=O)N2CCC[C@H]2C(=O)N[C@@H](C(C)C)C(=O)N[C@@H](CC(=O)O)C(=O)N[C@H](C(=O)NCC(=O)O)CSCC(=O)N[C@@H](Cc2ccc3ccccc3c2)C(=O)N[C@@H](Cc2c[nH]c3ccccc23)C(=O)N[C@@H](CC(=O)O)C1=O` [compound 1263] ({CH2CO}-[2Nal]WD[NHexGly]YLGRY[Ahp(2)]PVDCG-OH; thioether N-14): the IC50 under setting [2] worked out at 20 nM.

As to `CCCCCCN1CC(=O)N[C@@H](Cc2ccc(O)cc2)C(=O)N[C@@H](CCCC)C(=O)N[C@@H](CC(=O)O)C(=O)N[C@@H](CCCNC(=N)N)C(=O)N(C)[C@@H](CCCC)C(=O)N[C@@H](CCCCC)C(=O)N2CCC[C@H]2C(=O)N[C@@H](C(C)C)C(=O)N[C@@H](CC(=O)O)C(=O)N[C@H](C(=O)N[C@H](CC(=O)O)C(N)=O)CSCC(=O)N[C@@H](Cc2ccccc2)C(=O)N[C@@H](Cc2ccc(O)cc2)C(=O)N[C@@H](CC(=O)O)C1=O` [Example 1075] ({CH2CO}-FYD[NHexGly]Y[Nle]DR[NMeNle][Ahp(2)]PVDC[dD]-NH2; thioether N-14), under “293T cells expressing mouse VISTA, competition with biotinylated peptide (2 nM), read-out: CBA mVISTA IC50”, the IC50 was found to be 19.1 nM. As to `CCCCCCN1CC(=O)N[C@@H](Cc2ccc(O)cc2)C(=O)N[C@@H](CCCCC)C(=O)N[C@@H](CC(=O)O)C(=O)N[C@@H](CCCNC(=N)N)C(=O)N[C@@H](CC(C)C)C(=O)N[C@@H](CCCCC)C(=O)N2CCC[C@H]2C(=O)N[C@@H](C(C)C)C(=O)N[C@@H](CC(=O)O)C(=O)N[C@H](C(=O)NCC(N)=O)CSCC(=O)N[C@@H](Cc2ccc3ccccc3c2)C(=O)N[C@@H](Cc2ccc(O)cc2)C(=O)N[C@@H](CC(=O)O)C1=O` [Ex 1279] ({CH2CO}-[2Nal]YD[NHexGly]Y[Ahp(2)]DRL[Ahp(2)]PVDCG-NH2; thioether N-14), under setting [1], the IC50 was 26.6 nM.
